Laboratory results taken from patent publication US12383511B2, “Osteogenic agents and uses thereof” (GoldPorp Pharma Limited, priority 2022, dated 2025).

Key:
Type in all cases: cell-based
[1] = system: MCF7 cells; experiment: BrdU incorporation proliferation assay
Text: The effect of F compounds on estrogen dependent cancer cells was investigated (FIG. 8). […] The fold increase of MCF7 proliferation was similar to that induced by estradiol treatment.

[2] = system: MDA-MB-231 cells; experiment: BrdU incorporation proliferation assay; details: 5 μM
[3] = system: MC3T3-E1 osteoblast cells; experiment: Osteoblast mineralization assay (Alizarin Red staining); details: 5 μM compared with […]
Description: MC3T3-E1 cells were seeded at 1×10^5 cells per well in 24-well plates. […] […] Cells were washed twice with PBS and fixed with 10% formalin for 1 hour. Fixed cell was washed twice with distilled water and stained with 2% Alizarin Red S solution (pH 4.1) in the dark for 1 hour. Stain solution was removed and washed 4 times with distilled water.

[4] = system: MC3T3-E1 osteoblasts; experiment: Alkaline phosphatase (ALP) activity assay in MC3T3-E1 osteoblasts; details: for effect of antagonist on F4-induced ALP activity: 5 μM F4
Description: MC3T3-E1 (passage 4-10) was maintained in Minimal Essential Media (MEM) supplemented with 10% FBS, 1 mM Sodium Pyruvate and 1% 100 ug/ml penicillin-streptomycin (100 U/ml). All reagents are from GIBCO Life Technologies.
MC3T3-E1 cells were seeded at 1×10^5 cells per well in 24-well plate. […] After treatment, cells were washed twice with PBS and lysed with buffer contains 50 mM Tris pH7.4 and 0.1% Triton X-100. After 3 freeze-thaw cycles, 40 ul of cell lysate was mixed with 50 ul of 2× Assay buffer (2-Amino-2methyl-1-propanol, pH 10.4 with 4 mM MgCl2) and 10 ul of 0.1M 4-Nitrophenyl phosphate. Incubated in 37° C. and recorded at OD410.

[5] = system: estrogen responsive gene elements (ERE); experiment: pERE-Luc reporter gene assay in MC3T3-E1; details: ICI182780 10 nM and 1 μM
Description: MC3T3-E1 were seeded at 9.0×10^4 per well in 24-well plates. Twenty-four hours after cell seeding, cells were transiently transfected with 500 ng pERE-Luc (contains three repeats of estrogen-response element) by lipofectamine 2000 (Life Technologies) according to manufacturers' instruction (lipofectamine:DNA=3:1).

[6] = system: p38; experiment: Western blot of phosphorylated p38 and total p38; details: with 5 μM F4, 15 and 30 min, MC3T3-E1 osteoblasts
Description: MC3T3-E1 were lysed with 20 mM Tris pH8.0, 137 mM NaCl, 2 mM EDTA, 1% Triton X-100 and 10% Glycerol with protease inhibitor cocktail (Roche, complete). Protein concentration was determined by Bradford Protein Assay (Bio-Rad) and equal amount of proteins (30 μg) was resolved by SDS-PAGE and transferred onto PVDF membrane. The membrane was blocked with 3% BSA in Tris-buffered saline containing 0.1% Tween 20 and incubated with primary antibody (1:1000) overnight at 4° C. then incubated with HRP-linked secondary antibody for 1 h. Chemiluminescence signals were detected using enhanced chemiluminescence reagents (GE Healthcare) on X-Ray films (Fujifilm).
The levels of phosphorylated p38 and total p38 were determined by immunoblotting experiments.

## C=Cc1cc(O)cc2ccc3c(C)c(O)ccc3c12 [F5, dehydroeffusol]
[1]; 5 μM
  MCF7 cell proliferation induced by estradiol: significantly suppress
[1]; dose of 5 μM or higher
  MCF7 cell proliferation: inhibited the proliferation
[1]; low dose of 0.3 μM
  MCF7 cell proliferation: induced MCF7 cell proliferation
[2]
  cell proliferation induced by 17beta-estradiol in MDA-MB-231 cells (ER negative): had no effect
[3]
  calcium deposition at higher vs lower concentration: More calcium deposition

## C[C@]12CC[C@@H]3c4ccc(O)cc4C[C@@H](CCCCCCCCC[S+]([O-])CCCC(F)(F)C(F)(F)F)[C@H]3[C@@H]1CC[C@@H]2O (some centres unmarked) [ICI182780, reference compound]
[4]; day 4
  effect of antagonist on F4-induced ALP activity: no effect
[4]; day 7
  effect of antagonist on F4-induced ALP activity: inhibited
[5]; 5 μM F4
  effect of antagonist on F4-stimulated ERE promoter activity: could be inhibited
[5]
  effect of antagonist on estradiol-stimulated ERE-driven promoter activity: inhibited

## C[S+]([O-])c1ccc(-c2nc(-c3ccncc3)c(-c3ccc(F)cc3)[nH]2)cc1 (centres unmarked) [SB203580, reference compound]
[6]
  levels of phosphorylated p38 in F4-treated cells on addition of inhibitor: reduced the levels of phosphorylated p38
[4]; with 5 μM F4, 2 days
  effect of MAP kinase inhibitor on F4-induced increases in ALP activity: significantly inhibited
